Measured values from ChEMBL document CHEMBL3885861, “Open TG-GATES”.

Species: Rattus norvegicus
Experiment: Open TG-GATES - Regimen: Daily Repeat
Format: toxicity, organism-based, Sprague-Dawley
Parameters: regimen Daily Repeat, gender Male, age 6 weeks
Settings: in vivo, po, route gavage; for Eos / Fbg / Hb / Ht / Lym / MCHC / MCV / Mono / Neu / PT / Plat / RBC / Ret / WBC / Bas: tissue Blood; for ALP / AST / BUN / CRE / Ca / Cl / DBIL / GLC / IP / K / LDH / Na / PL / RALB / TBIL / TC / TG / TP / gamma-GTP / ALT: tissue Plasma
[1] = 300 mg/kg, 72 h, dose level Middle, time 3 day
[2] = 300 mg/kg, […], dose level Middle, time 7 day
[3] = 300 mg/kg, […], dose level Middle, time 14 day
[4] = 300 mg/kg, […], dose level Middle, time 28 day

O=C(O)c1cccnc1 [NIACIN] was tested. Which Eos [1] did it give?
The Eos was 1%.

What about the Fbg [1] of the same compound?
The Fbg was 314.2 mg/dL.

And the Hb [1]?
The Hb was 13.3 g/dL.

And the Ht [1]?
Its Ht is 40.2%.

And the Lym [1]?
Its Lym is 75.2%.

And the MCHC [1]?
Its MCHC is 33%.

What about the MCV [1] of the same compound?
Its MCV is 63.4 fL.

What about the Mono [1] of the same compound?
The Mono was 3.6%.

And the Neu [1]?
The Neu was 19%.

What about the PT [1] of the same compound?
Its PT is 16 s.

And the Plat [1]?
Its Plat is 132.1 x10_4/uL.

What about the RBC [1] of the same compound?
The RBC was 635.6 x10_4/ul.

And the Ret [1]?
Its Ret is 7.2%.

And the WBC [1]?
Its WBC is 106.7 x10_2/uL.

What about the ALP [1] of the same compound?
The ALP was 1606.8 IU/L.

What about the AST [1] of the same compound?
Its AST is 74.6 IU/L.

What about the BUN [1] of the same compound?
Its BUN is 16.4 mg/dL.

What about the CRE [1] of the same compound?
Its CRE is 0.2 mg/dL.

What about the Ca [1] of the same compound?
Its Ca is 10.8 mg/dL.

And the Cl [1]?
Its Cl is 104 meq/L.

And the DBIL [1]?
Its DBIL is 0 mg/dL.

What about the GLC [1] of the same compound?
Its GLC is 191.6 mg/dL.

What about the IP [1] of the same compound?
Its IP is 8.2 mg/dL.

And the K [1]?
The K was 4.1 meq/L.

What about the LDH [1] of the same compound?
Its LDH is 165.8 IU/L.

What about the Na [1] of the same compound?
The Na was 139.6 meq/L.

What about the PL [1] of the same compound?
Its PL is 152.8 mg/dL.

What about the RALB [1] of the same compound?
The RALB was 3 g/dL.

What about the TBIL [1] of the same compound?
Its TBIL is 0 mg/dL.

What about the TC [1] of the same compound?
Its TC is 73.2 mg/dL.

What about the TG [1] of the same compound?
The TG was 136.2 mg/dL.

And the TP [1]?
The TP was 5.6 g/dL.

And the gamma-GTP [1]?
The gamma-GTP was 1.2 IU/L.

What about the TERMINAL_BW [2] of the same compound?
Its TERMINAL_BW is 273.2 g.

And the TERMINAL_BW [3]?
Its TERMINAL_BW is 321.5 g.

What about the TERMINAL_BW [4] of the same compound?
The TERMINAL_BW was 396.3 g.

And the Bas [2]?
The Bas was 0%.

What about the Eos [2] of the same compound?
The Eos was 1%.

And the Fbg [2]?
Its Fbg is 325.8 mg/dL.

And the Hb [2]?
The Hb was 13.8 g/dL.

And the Ht [2]?
Its Ht is 41.4%.

And the Lym [2]?
Its Lym is 75%.

And the MCHC [2]?
The MCHC was 33.4%.

And the MCV [2]?
The MCV was 63.5 fL.

What about the Mono [2] of the same compound?
The Mono was 3.4%.

What about the Neu [2] of the same compound?
The Neu was 19.2%.

And the PT [2]?
The PT was 15.6 s.

What about the Plat [2] of the same compound?
Its Plat is 112.8 x10_4/uL.

And the RBC [2]?
Its RBC is 652.2 x10_4/ul.

What about the Ret [2] of the same compound?
The Ret was 6%.

What about the WBC [2] of the same compound?
Its WBC is 104.1 x10_2/uL.

What about the Bas [3] of the same compound?
Its Bas is 0%.

And the Eos [3]?
Its Eos is 0.6%.

And the Fbg [3]?
Its Fbg is 325.2 mg/dL.

What about the Ht [3] of the same compound?
The Ht was 42.2%.

What about the Lym [3] of the same compound?
The Lym was 72.6%.

What about the MCHC [3] of the same compound?
The MCHC was 33.7%.

And the MCV [3]?
Its MCV is 59.8 fL.

And the Mono [3]?
Its Mono is 3.4%.

And the Neu [3]?
The Neu was 21.8%.

And the PT [3]?
Its PT is 15.5 s.

And the Plat [3]?
Its Plat is 109.4 x10_4/uL.

What about the RBC [3] of the same compound?
The RBC was 705.8 x10_4/ul.

And the Ret [3]?
The Ret was 4.7%.

And the WBC [3]?
The WBC was 119.8 x10_2/uL.

And the Bas [4]?
The Bas was 0%.

And the Eos [4]?
The Eos was 1.2%.

And the Fbg [4]?
Its Fbg is 336.6 mg/dL.

What about the Hb [4] of the same compound?
The Hb was 15 g/dL.

And the Ht [4]?
Its Ht is 42.6%.

And the Lym [4]?
The Lym was 74.8%.

And the MCHC [4]?
Its MCHC is 35.3%.

What about the MCV [4] of the same compound?
The MCV was 56 fL.

What about the Mono [4] of the same compound?
The Mono was 2.8%.

And the PT [4]?
The PT was 16.1 s.

And the Plat [4]?
The Plat was 100.4 x10_4/uL.

And the RBC [4]?
Its RBC is 761.2 x10_4/ul.

What about the Ret [4] of the same compound?
The Ret was 2.6%.

What about the WBC [4] of the same compound?
Its WBC is 105.7 x10_2/uL.

What about the ALP [2] of the same compound?
Its ALP is 1661 IU/L.

What about the ALT [2] of the same compound?
Its ALT is 47.8 IU/L.

And the AST [2]?
Its AST is 76 IU/L.

And the BUN [2]?
Its BUN is 17.6 mg/dL.

And the CRE [2]?
Its CRE is 0.1 mg/dL.

And the Ca [2]?
The Ca was 10.7 mg/dL.

And the Cl [2]?
The Cl was 105 meq/L.

What about the DBIL [2] of the same compound?
Its DBIL is 0 mg/dL.

What about the GLC [2] of the same compound?
The GLC was 189 mg/dL.

What about the IP [2] of the same compound?
Its IP is 7.4 mg/dL.

What about the K [2] of the same compound?
The K was 4.3 meq/L.

And the LDH [2]?
Its LDH is 138.4 IU/L.

And the Na [2]?
Its Na is 139.8 meq/L.

And the PL [2]?
Its PL is 161.8 mg/dL.

And the RALB [2]?
The RALB was 2.9 g/dL.

What about the TBIL [2] of the same compound?
Its TBIL is 0 mg/dL.

And the TC [2]?
The TC was 79.6 mg/dL.

And the TG [2]?
Its TG is 135.8 mg/dL.

What about the TP [2] of the same compound?
Its TP is 5.5 g/dL.

What about the gamma-GTP [2] of the same compound?
Its gamma-GTP is 1.4 IU/L.

And the ALP [3]?
Its ALP is 1495.2 IU/L.

And the ALT [3]?
The ALT was 39.6 IU/L.

And the AST [3]?
Its AST is 68.8 IU/L.

What about the CRE [3] of the same compound?
The CRE was 0.2 mg/dL.

What about the Ca [3] of the same compound?
Its Ca is 10.7 mg/dL.

What about the Cl [3] of the same compound?
The Cl was 104.4 meq/L.

What about the DBIL [3] of the same compound?
Its DBIL is 0 mg/dL.

What about the GLC [3] of the same compound?
Its GLC is 201 mg/dL.

And the IP [3]?
Its IP is 6.8 mg/dL.

And the K [3]?
The K was 3.9 meq/L.

And the LDH [3]?
The LDH was 166.4 IU/L.

And the Na [3]?
The Na was 137.6 meq/L.

And the PL [3]?
The PL was 162.6 mg/dL.

And the RALB [3]?
The RALB was 3.1 g/dL.

And the TBIL [3]?
The TBIL was 0.006 mg/dL.

What about the TC [3] of the same compound?
The TC was 77.6 mg/dL.

And the TG [3]?
The TG was 156 mg/dL.

What about the TP [3] of the same compound?
The TP was 5.8 g/dL.

And the gamma-GTP [3]?
Its gamma-GTP is 1.8 IU/L.

What about the ALP [4] of the same compound?
The ALP was 1059.8 IU/L.

What about the ALT [4] of the same compound?
The ALT was 41.4 IU/L.

And the AST [4]?
The AST was 71.2 IU/L.

And the BUN [4]?
Its BUN is 16 mg/dL.

And the CRE [4]?
The CRE was 0.2 mg/dL.

And the Ca [4]?
The Ca was 10.4 mg/dL.

And the Cl [4]?
Its Cl is 107 meq/L.

What about the DBIL [4] of the same compound?
Its DBIL is 0 mg/dL.

What about the GLC [4] of the same compound?
Its GLC is 193.6 mg/dL.

What about the IP [4] of the same compound?
Its IP is 6.3 mg/dL.

What about the K [4] of the same compound?
Its K is 4.4 meq/L.

And the LDH [4]?
Its LDH is 149.2 IU/L.

And the Na [4]?
The Na was 143 meq/L.

What about the PL [4] of the same compound?
Its PL is 140.4 mg/dL.

What about the RALB [4] of the same compound?
Its RALB is 3 g/dL.

And the TBIL [4]?
Its TBIL is 0.008 mg/dL.

What about the TC [4] of the same compound?
Its TC is 69.4 mg/dL.

And the TG [4]?
Its TG is 126.6 mg/dL.

And the TP [4]?
The TP was 6.1 g/dL.

What about the gamma-GTP [4] of the same compound?
The gamma-GTP was 2.8 IU/L.

And the TERMINAL_BW (1000 mg/kg, 72 h, dose level High, time 3 day)?
The TERMINAL_BW was 239.5 g.
